Data as given in patent US9751854B2 (Millennium Pharmaceuticals, Inc., priority 2014, dated 2017).
Like-named read-outs stand apart in the source and are kept apart here.

Molecular target: human VPS34 (Homo sapiens (Human), UniProt Q8NEB9)
Assay: Human VPS34 enzyme assay (Adapta TR-FRET ADP detection)
Assay type: biochemical
Set-up: Percent Inhibition: dose or concentration left out as unconfirmed

Sequence of human VPS34 (Q8NEB9 whole entry): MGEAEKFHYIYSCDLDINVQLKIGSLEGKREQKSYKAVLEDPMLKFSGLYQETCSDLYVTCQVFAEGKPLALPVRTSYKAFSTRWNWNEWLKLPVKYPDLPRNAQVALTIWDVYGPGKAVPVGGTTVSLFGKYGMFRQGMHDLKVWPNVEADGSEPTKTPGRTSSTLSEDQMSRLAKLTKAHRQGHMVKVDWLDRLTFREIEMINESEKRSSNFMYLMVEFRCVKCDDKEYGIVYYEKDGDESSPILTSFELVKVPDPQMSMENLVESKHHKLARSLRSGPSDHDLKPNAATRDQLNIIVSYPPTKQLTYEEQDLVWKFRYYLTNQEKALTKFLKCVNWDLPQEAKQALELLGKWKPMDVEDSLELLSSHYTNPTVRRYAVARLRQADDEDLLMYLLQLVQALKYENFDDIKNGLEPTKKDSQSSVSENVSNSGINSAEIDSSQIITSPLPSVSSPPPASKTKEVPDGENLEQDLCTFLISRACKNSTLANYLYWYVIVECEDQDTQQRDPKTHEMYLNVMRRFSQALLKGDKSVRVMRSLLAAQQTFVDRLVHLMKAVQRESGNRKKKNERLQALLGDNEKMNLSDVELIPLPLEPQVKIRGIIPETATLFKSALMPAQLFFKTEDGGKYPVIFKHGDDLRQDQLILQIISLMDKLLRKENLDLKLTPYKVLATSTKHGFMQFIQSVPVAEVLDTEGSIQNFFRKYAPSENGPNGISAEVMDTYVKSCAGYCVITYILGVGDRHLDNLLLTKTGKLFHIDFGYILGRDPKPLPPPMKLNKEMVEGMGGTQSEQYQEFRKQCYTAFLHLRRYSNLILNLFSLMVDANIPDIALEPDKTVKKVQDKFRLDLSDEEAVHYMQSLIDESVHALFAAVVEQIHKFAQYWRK

IC50 (IC50 range class) [nM]	SMILES	Percent Inhibition [%]	IC50 [nM]
< 10	Cc1c(-c2ccnc(Nc3ccnc(C4CC4)n3)c2)cnc(Cl)c1NS(=O)(=O)N(C)C [Compound I-435, N′-{6-chloro-2′-[(cyclopropylpyrimidin-4-yl)amino]-4-methyl-3,4′-bipyridin-5-yl}-N,N-dimethylsulfuric diamide]	–	–
10 to 50	CC(=O)Nc1cc(-c2cnc(Cl)c(S(=O)(=O)NC3CCC3)c2)ccn1 [Compound I-438, N-[6-chloro-5-(cyclobutylsulfamoyl)-3,4′-bipyridin-2′-yl]acetamide]	–	–
10 to 50	Cc1ncc(-c2ccnc(Nc3ccn(C)n3)c2)cc1NS(=O)(=O)c1ccc(F)cc1F [Compound I-301, 2,4-difluoro-N-{6-methyl-2′-[(1-methyl-1H-pyrazole-3-yl)amino]-3,4′-bipyridin-5-yl]benzenesulfonamide]	–	–
10 to 50	Cc1nccc(Nc2cc(-c3cncc(C(=O)N4CC(F)(F)C4)c3)ccn2)n1 [Compound I-408, (3,3-difluoroazetidin-1-yl){2′-[(2-methylpyrimidin-4-yl)amino]-3,4′-bipyridin-5-yl}methanone]	–	–
< 10	CC(=O)Nc1cc(-c2ccnc(Nc3ccnc(C4CC4)n3)c2)cn2nccc12 [Compound I-371, N-(6-{2-[(2-cyclopropylpyrimidin-4-yl)amino]pyridin-4-yl}pyrazolo[1,5-a]pyridin-4-yl)acetamide]	>99	–
10 to 50	CC(=O)Nc1cc(-c2cnc(Cl)c(NS(=O)(=O)c3ccc(C#N)cc3)c2C)ccn1 [Compound I-429, N-(6-chloro-5-{[(4-cyanophenyl)sulfonyl]amino}-4-methyl-3,4′-bipyridin-2′-yl)acetamide]	–	–
> 100	CC(=O)Nc1cc(-c2cncc(NC(=O)c3ccc(F)cc3F)c2)ccn1 [Compound I-419, N-(2′-acetamido-3,4′-bipyridin-5-yl)-2,4-difluorobenzamide]	–	–
10 to 50	CC(=O)Nc1cc(-c2cnc(Cl)c(NS(=O)(=O)c3ccc(Br)cc3F)c2C)ccn1 [Compound I-444, N-(5-{[(4-bromo-2-fluorophenyl)sulfonyl]amino}-6-chloro-4-methyl-3,4′-bipyridin-2′-yl)acetamide]	–	–
10 to 50	CC(=O)Nc1cc(-c2cc(NS(=O)(=O)c3ccc(F)cc3F)c(C)[n+]([O-])c2)ccn1 [Compound I-258, N-[4-(5-{[(2,4-difluorophenyl)sulfonyl]amino}-6-methyl-1-oxidopyridin-3-yl)pyridin-2-yl]acetamide]	–	–
10 to 50	CC(=O)Nc1cc(-c2cnc(Cl)c(S(=O)(=O)NC(C)(C)C)c2C)ccn1 [Compound I-410, N-[5-(tert-butylsulfamoyl)-6-chloro-4-methyl-3,4′-bipyridin-2′-yl]acetamide]	–	–
10 to 50	COC(=O)Nc1cc(-c2cnc(C)c(NS(=O)(=O)N(C)C)c2)ccn1 [Compound I-241, methyl (5-[(dimethylsulfamoyl)amino]-6-methyl-3,4′-bipyridin-2′-yl]carbamate]	–	–
10 to 50	Cc1nccc(Nc2cc(-c3cnc(C)c(OCCO)c3)ccn2)n1 [Compound I-424, 2-({6-methyl-2′-[(2-methylpyrimidin-4-yl)amino]-3,4′-bipyridin-5-yl}oxy)ethanol]	–	–
> 100	COc1ncc(-c2ccnc(NC(C)=O)c2)cc1NC(=O)c1ccc(F)cc1F [Compound I-347, N-(2′-acetamido-6-methoxy-3,4′-bipyridin-5-yl)-2,4-difluorobenzamide]	–	–
10 to 50	Cc1nccc(Nc2cc(-c3cnc(C)c(OC(C)C)c3)ccn2)n1 [Compound I-446, 5-isopropoxy-6-methyl-N-(2-methylpyrimidin-4-yl)-3,4′-bipyridin-2′-amine]	–	–
10 to 50	CC(=O)Nc1cc(-c2cnc(C)c(S(=O)(=O)NC34CC(C3)C4)c2)ccn1 [Compound I-418, N-[5-(bicyclo[1.1.1]pent-1-ylsulfamoyl)-6-methyl-3,4′-bipyridin-2′-yl]acetamide]	–	–
10 to 50	Cc1ncc(-c2ccnc(Nc3ccnc(C(F)(F)F)n3)c2)cc1C(=O)N1CCC1 [Compound I-292, azetidin-1-yl(6-methyl-2′-[(2-(trifluoromethyl)pyrimidin-4-yl]amino}-3,4′-bipyridin-5-yl)methanone]	–	–

Further lines, the compound ahead of its results:

SMILES	IC50 (IC50 range class) [nM]	Percent Inhibition [%]	IC50 [nM]
CC(=O)Nc1cc(-c2cnc(N)c(S(=O)(=O)Cc3ccc(F)cc3F)c2)ccn1 [Compound I-138, N-[6-amino-5-[(2,4-difluorobenzyl)sulfonyl]-3,4′-bipyridin-2′-yl]acetamide]	10 to 50	–	–
CC(=O)Nc1cc(-c2cnc(C)c(NS(=O)(=O)c3ccc(C)cc3F)c2)c(C)cn1 [Compound I-130, N-(5-{[(2-fluoro-4-methylphenyl)sulfonyl]amino}-5′,6-dimethyl-3,4′-bipyridin-2′-yl)acetamide]	50 to 100	–	–
CC(=O)Nc1cc(-c2cnc3[nH]cc(CN4CCCC4)c3c2)ccn1 [Compound I-54, N-{4-[3-(pyrrolidin-1-ylmethyl)-1H-pyrrolo[2,3-b]pyridin-5-yl]pyridin-2-yl}acetamide]	> 100	–	–
CC(=O)Nc1cc(-c2cnc(N)c(C(=O)Nc3cccnc3)c2)ccn1 [Compound I-91, 2′-acetamido-6-amino-N-(pyridin-3-yl)-3,4′-bipyridine-5-carboxamide]	< 10	–	–
CC(=O)Nc1cc(-c2cnc(C)c(NS(=O)(=O)c3ccc(C)cc3)c2)ccn1 [Compound I-80, N-(6-methyl-5-{[(4-methylphenyl)sulfonyl]amino]-3,4′-bipyridin-2′-yl)acetamide]	< 10	–	–
CC(=O)Nc1cc(-c2cnc(N)c(NCC3CC3)c2)ccn1 [Compound I-35, N-{6-amino-5-[(cyclopropylmethyl)amino]-3,4′-bipyridin-2′-yl}acetamide]	10 to 50	–	–
CC(=O)Nc1cc(-c2cnc(N)c(C(=O)Nc3cc(C)cnn3)c2)ccn1 [Compound I-121, 2′-acetamido-6-amino-N-(5-methylpyridazin-3-yl)-3,4′-bipyridine-5-carboxamide]	50 to 100	–	–
CC(=O)Nc1cc(-c2cncc(/C=C/C(=O)c3ccc(F)cc3)c2)ccn1 [Compound I-188, N-{5-[(1E)-3-(4-fluorophenyl)-3-oxoprop-1-en-1-yl]-3,4′-bipyridin-2′-yl}acetamide]	50 to 100	–	–
Cc1nccc(Nc2cc(-c3cnc(N)c(C(=O)N(C)C45CC(C4)C5)c3)ccn2)n1 [Compound I-277, 6-amino-N-(bicyclo[1.1.1]pent-1-yl)-N-methyl-2′-[(2-methylpyrimidin-4-yl)amino]-3,4′-bipyridine-5-carboxamide]	< 10	100	–
CC(=O)Nc1cc(-c2cnc(N)c(S(=O)(=O)N(C)c3ccccc3)c2)ccn1 [Compound I-37, N-{6-amino-5-[methyl(phenyl)sulfamoyl]-3,4′-bipyridin-2′-yl}acetamide]	< 10	–	–
CC(=O)Nc1cc(-c2cnc(N)c(C(=O)N(C)C)c2)ccn1 [Compound I-149, 2′-acetamido-6-amino-N,N-dimethyl-3,4′-bipyridine-5-carboxamide]	10 to 50	–	–
CC(=O)Nc1cc(-c2cnc(N)c(S(=O)(=O)NCC(C)C)c2)ccn1 [Compound I-73, N-[6-amino-5-(isobutylsulfamoyl)-3,4′-bipyridin-2′-yl]acetamide]	< 10	>99	–
CC(=O)Nc1cc(-c2cnc(N)c(S(=O)(=O)Nc3ccc(F)cc3F)c2)ccn1 [Compound I-170, N-{6-amino-5-[(2,4-difluorophenyl)sulfamoyl]-3,4′-bipyridin-2′-yl}acetamide]	< 10	–	–
CC(=O)Nc1cc(-c2cnc(C)c(NS(=O)(=O)c3ccc(Cl)cc3)c2)ccn1 [Compound I-154, N-(5-{[(4-chlorophenyl)sulfonyl]amino}-6-methyl-3,4′-bipyridin-2′-yl)acetamide]	< 10	–	–
CN(C)S(=O)(=O)c1cc(-c2ccnc(Nc3ncco3)c2)cnc1N [Compound I-166, 6-amino-N,N-dimethyl-2′-(1,3-oxazol-2-ylamino)-3,4′-bipyridine-5-sulfonamide]	< 10	–	–
CC(=O)Nc1cc(-c2cnc(N)c(S(=O)(=O)CC3CC3)c2)ccn1 [Compound I-208]	–	>99	10 to 50
CC(=O)Nc1cc(-c2cnc(C)c(N(C)S(=O)(=O)c3ccccc3)c2)ccn1 [Compound I-46, N-{6-methyl-5-[methyl(phenylsulfonyl)amino]-3,4′-bipyridin-2′-yl}acetamide]	10 to 50	–	–
CC(=O)Nc1cc(-c2cnc(C)c(NS(=O)(=O)c3cc(Cl)ccc3Cl)c2)ccn1 [Compound I-111, N-(5-{[(2,5-dichlorophenyl)sulfonyl]amino}-6-methyl-3,4′-bipyridin-2′-yl)acetamide]	< 10	–	–
CC(=O)Nc1cc(-c2cnc(N)c(C(=O)Nc3cccc(F)c3)c2)ccn1 [Compound I-82, 2′-acetamido-6-amino-N-(3-fluorophenyl)-3,4′-bipyridine-5-carboxamide]	10 to 50	–	–
CC(=O)Nc1cc(-c2cnc(N)c(S(=O)(=O)N3CCOCC3)c2)ccn1 [Compound I-24, N-[6-amino-5-(morpholin-4-ylsulfonyl)-3,4′-bipyridin-2′-yl]acetamide]	< 10	–	–
CC(=O)Nc1cc(-c2cnc(C)c(N(C)S(C)(=O)=O)c2)ccn1 [Compound I-96, N-{6-methyl-5-[methyl(methylsulfonyl)amino]-3,4′-bipyridin-2′-yl}acetamide]	10 to 50	–	–
CC(=O)Nc1cc(-c2cnc(C)c(NS(=O)(=O)C3CC3)c2)ccn1 [Compound I-114, N-{5-[(cyclopropylsulfonyl)amino]-6-methyl-3,4′-bipyridin-2′-yl]acetamide]	10 to 50	–	–
Cc1cc(Nc2cc(-c3cnc(Cl)c(NS(=O)(=O)c4ccc(F)cc4F)c3C)ccn2)nc(C)n1 [Compound I-218, N-{6-chloro-2′-[(2,6-dimethylpyrimidin-4-yl)amino]-4-methyl-3,4′-bipyridin-5-yl}-2,4-difluorobenzenesulfonamide]	10 to 50	>99	–
Cc1nccc(Nc2cc(-c3cnc(Cl)c(S(=O)(=O)NC4CCC4)c3)ccn2)n1 [Compound I-215, 6-chloro-N-cyclobutyl-2′-((2-methylpyrimidin-4-yl)amino)-[3,4′-bipyridine]-5-sulfonamide]	10 to 50	–	–
CC(=O)Nc1cc(-c2cnc(C)c(NS(=O)(=O)c3ccccc3F)c2)ccn1 [Compound I-144, N-[5-{[(2-fluorophenyl)sulfonyl]amino}-6-methyl-3,4′-bipyridin-2′-yl)acetamide]	< 10	–	–
